Assay results: patent US20040229791A1, “Compositions and methods of modulating TGF-beta activity by fatty acids” (priority 2002, published 2004)

Target: T1, TGF-β1-α2M* complex (Homo sapiens, UniProt P01023)
T1 construct: was purified from pooled citrate-treate human plasma; from tissue; host or cells: pooled citrate-treated human plasma
T1 sequence (P01023 24-1474): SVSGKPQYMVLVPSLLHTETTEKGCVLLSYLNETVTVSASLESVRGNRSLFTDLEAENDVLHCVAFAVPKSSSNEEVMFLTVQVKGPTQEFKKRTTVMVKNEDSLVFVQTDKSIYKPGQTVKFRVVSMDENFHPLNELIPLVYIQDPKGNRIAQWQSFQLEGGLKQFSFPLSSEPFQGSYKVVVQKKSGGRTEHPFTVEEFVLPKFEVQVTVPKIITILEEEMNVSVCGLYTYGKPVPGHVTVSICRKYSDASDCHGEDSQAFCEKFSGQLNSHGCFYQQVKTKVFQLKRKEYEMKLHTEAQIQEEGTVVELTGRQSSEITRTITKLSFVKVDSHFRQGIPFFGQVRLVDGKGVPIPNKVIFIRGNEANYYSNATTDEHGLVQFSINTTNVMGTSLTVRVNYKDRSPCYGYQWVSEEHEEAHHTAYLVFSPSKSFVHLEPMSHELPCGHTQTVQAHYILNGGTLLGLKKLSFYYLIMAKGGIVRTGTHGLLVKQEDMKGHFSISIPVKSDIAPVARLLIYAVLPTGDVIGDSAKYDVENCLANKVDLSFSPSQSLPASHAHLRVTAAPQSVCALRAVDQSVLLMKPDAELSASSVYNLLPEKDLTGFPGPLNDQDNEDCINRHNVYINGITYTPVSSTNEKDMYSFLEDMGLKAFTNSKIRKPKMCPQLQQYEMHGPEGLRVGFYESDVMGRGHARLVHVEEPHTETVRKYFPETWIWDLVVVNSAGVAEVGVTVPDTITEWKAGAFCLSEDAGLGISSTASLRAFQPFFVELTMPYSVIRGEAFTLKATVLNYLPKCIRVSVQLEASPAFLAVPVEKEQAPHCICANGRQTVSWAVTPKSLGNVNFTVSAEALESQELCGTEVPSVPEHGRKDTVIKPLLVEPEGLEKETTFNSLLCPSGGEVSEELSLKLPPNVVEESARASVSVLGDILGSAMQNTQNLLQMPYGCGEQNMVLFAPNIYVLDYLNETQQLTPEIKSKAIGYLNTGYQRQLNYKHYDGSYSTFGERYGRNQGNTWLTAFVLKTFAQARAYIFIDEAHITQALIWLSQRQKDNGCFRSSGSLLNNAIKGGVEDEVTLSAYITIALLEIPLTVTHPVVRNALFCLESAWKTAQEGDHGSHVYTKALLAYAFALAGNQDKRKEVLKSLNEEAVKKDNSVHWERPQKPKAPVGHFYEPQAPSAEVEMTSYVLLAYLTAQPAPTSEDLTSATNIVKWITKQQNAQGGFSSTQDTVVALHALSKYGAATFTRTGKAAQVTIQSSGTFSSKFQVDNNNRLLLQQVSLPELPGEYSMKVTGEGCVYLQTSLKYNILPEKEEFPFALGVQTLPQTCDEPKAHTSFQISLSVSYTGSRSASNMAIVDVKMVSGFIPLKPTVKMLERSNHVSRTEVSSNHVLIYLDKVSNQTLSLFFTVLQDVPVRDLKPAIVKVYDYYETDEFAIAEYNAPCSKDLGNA
Assay: Inhibition of 125I-TGF-β1 and α2M* complex formation (5% non-denaturing PAGE, autoradiography)
Format: binding
Details: for IC50: ~1 nM 125I-TGF-β1, 10 μg α2M* in 0.05 ml, 30 min room temperature, non-denaturing PAGE, read-out: IC50 for inhibiting complex formation between TGF-β1 and α2M*
Method: Saturated and unsaturated fatty acids are present in plasma and tissues (25,26). The effects of various concentrations of saturated fatty acids on the formation of complexes between ^125I-TGF ? β1 and ? 2M* were examined. ^125I-TGF- ? 1 (1 nM) was incubated μg/ml) in the presence of various concentrations of n-caprylic acid ([…]), lauric acid (12 carbon atoms), myristic acid (14 carbon atoms), palmitic acid (16 carbon atoms) and stearic acid (18 carbon atoms). After 30 min at room temperature, the reaction mixture was analyzed by 5% non-denaturing PAGE and autoradiography, a standard method form determining complex formation between TGF-β and α2M* (12). […] At 100 μM, it inhibited 20% of the complex formation between TGF ? β1 and α2M*. Esterification consistently abolished the inhibitory activities of the fatty acids.
Complex formation of ^125I-TGF-β and ? 2M*—The reaction mixture contained 10 μg of . α2M*, ˜1 nM of ^125I-TGF- ? 1, ^125I-TGF ? β2 or ^125I-TGF ? acids (dissolved in 100% ethanol) in 0.05 ml of 50 mM HEPES-NaOH buffer, pH 7.4. The final concentration of ethanol in the reaction mixture was 0.5%. These fatty acids and fatty acid derivatives were soluble under the experimental conditions. After 30 min at room temperature, the complex formation of ^125I-TGF- ? and. α2M* was determined by 5% non-denaturing polyacrylamide gel electrophoresis (PAGE) or by 7.5% SDS-PAGE following cross-linking by 0.6 mM DSS. After electrophoresis, the gel was stained with Coomassie blue and analyzed by autoradiography. The ^125I-TGF- ? - ? 2M* complex which co-migrated with free ? 2M* was quantified using a PhosphoImager (Fuji).

Row | Structure (SMILES) | IC50 | inhibitory activity on complex formation of 125I-TGF-β1 and α2M*
1 | CCCCCC=CCC=CCC=CCC#CCCCC(=O)O [ETYA, 8, 11, 14 eicosatrien-5-ynoic acid] | 30 µM | –
2 | CCCCC/C=C\C/C=C\C/C=C\C/C=C\CCCC(=O)OC [arachidonic acid methyl ester] | – | inactive
3 | CCCCCCCCCCCC(=O)O [lauric acid] | 68 µM | –
